29 compounds from patent publication US20260035403A1, “NUCLEOSIDE LINE-1 INHIBITORS” (TRANSPOSON THERAPEUTICS, INC., priority 2022, published 2026) can be followed below.

In the first experiment the test system is human LINE-1. In words: Human LINE-1 retrotransposition assay (HeLa cell-based dual-luciferase reporter). Conditions: Homo sapiens, HeLa, 72 h, Human LINE-1 activity inhibition; HeLa cells, reporter plasmid pYX017, Firefly/Renilla, 72 h incubation. How it is done:
Representative Compounds of the Disclosure were tested for inhibition of retrotransposition activity of human LINE-1 in HeLa cells according to the following procedure.
HeLa cervical cancer cells were cultivated at 37° C. in a humidified 5% CO2 incubator in Dulbecco's Modified Eagle's Medium (DMEM)—high glucose, with 4500 mg/L glucose, L-glutamine, sodium pyruvate and sodium bicarbonate (Sigma), supplemented with 10% of heat inactivated fetal bovine serum (Thermo Fisher).
Assays were performed using reporter plasmid pYX017 as described (Xie, et al., 2011) with several modifications. The reporter assay was performed in 96-well white optical bottom plates. HeLa cells were seeded in wells 24 h prior to transfection and compound treatment so that cells were approximately 30% confluent on the day of transfection. Different cell plating densities were tested and a density of 2×10^3 cells was determined to be optimal.
Compounds were resuspended in DMSO. Serial dilutions (1:3) were prepared in DMSO. Medium containing different concentrations of the compounds were prepared by adding 2 μl of the compound dilution to 1 ml of the culture medium. The final concentration of DMSO in the medium was 0.2%.
FuGENE® HD transfection reagent (Promega, E2311, Lot 382574 and Lot 397842) was used to transfect the plasmids into the cells. The transfection reagent: DNA mixture was prepared in OpiMEM (Thermo Fisher) according to manufacturer's instructions. Different ratios of transfection reagent to DNA were tested and a ratio of 3:1 was determined to be optimal. Culture medium was removed from the cells and discarded. The transfection reagent: DNA mixture (5 μl) was mixed with the compound containing medium (100 μl/well) and this was added onto the cells of each well. Cells were incubated at 37° C./5% CO2 for different incubation time. A 72 h incubation time was determined to be optimal.
Luciferase reporter activity was quantified with the Dual-Luciferase® Reporter Assay System (Promega) according to manufacturer's instructions for multiwell plates except that cells were lysed directly on the multiwell plate with 30 μl of the passive lysis buffer (PLB) for 20 min at room temperature, with gentle shaking to ensure complete cell lysis.
Firefly and Renilla luciferase signals were measured using a SpectraMax i3× Multi-Mode Microplate Reader. Integration times of 100 ms and 10 ms were used to measure the Firefly and Renilla signals respectively. Relative L1 activity is calculated as Firefly/Renilla*1000 or Firefly/Renilla*10,000. Dose response inhibition data were fit to a four parameter logistic equation using non-linear regression (using Graphpad Prism 8), to determine IC50 values for each inhibitor.
A general note: A reporter such as luciferase makes a cellular process visible.
By IC50 is commonly meant the point on the concentration scale where inhibition reaches its midpoint. In turn, `C=C[C@]1(CO)OC(n2cc(Br)c(N)nc2=O)C[C@@H]1O` (stereo partly drawn) [compound 67, 4-amino-5-bromo-1-((4S,5R)-4-hydroxy-5-(hydroxymethyl)-5-vinyltetrahydrofuran-2-yl)pyrimidin-2(1H)-one] had an IC50 of 0.004 µM. In the case of `C#C[C@]1(CO)O[C@H](n2ccc(N)nc2=O)C[C@@H]1O` [compound 32, 4-amino-1-((2S,4S,5R)-5-ethynyl-4-hydroxy-5-(hydroxymethyl)tetrahydrofuran-2-yl)pyrimidin-2(1H)-one], the 50% inhibitory concentration (IC50) was found to be 0.84 µM. Same read-out and setting: with `C#C[C@]1(CO)OC(n2cc(C)c(N)nc2=O)C[C@@H]1O` (stereo partly drawn) [compound 46, 4-amino-1-((4S,5R)-5-ethynyl-4-hydroxy-5-(hydroxymethyl)tetrahydrofuran-2-yl)-5-methylpyrimidin-2(1H)-one] the figure was over 50 µM; with `C#C[C@@]1(CO)C=C[C@H](n2cnc3c(OC)nc(Cl)nc32)O1` [compound 41, ((2R,5R)-5-(2-chloro-6-methoxy-9H-purin-9-yl)-2-ethynyl-2,5-dihydrofuran-2-yl)methanol], over 50 µM. Same read-out and setting: with `C[C@]1(CO)O[C@@H](n2ccc(N)nc2=O)[C@H](O)[C@@H]1O` [compound 198, 4-amino-1-((2R,3R,4S,5R)-3,4-dihydroxy-5-(hydroxymethyl)-5-methyltetrahydrofuran-2-yl)pyrimidin-2(1H)-one] the figure was over 50 µM. On the same count and under the same terms, under `C#C[C@]1(CO)C=C[C@@H](n2cc(F)c(N)nc2=O)O1` [Cpd. No. 74, 4-amino-1-[(2S,5S)-5-ethynyl-5-(hydroxymethyl)-2H-furan-2-yl]-5-fluoro-pyrimidin-2-one] stands over 50 µM; under `C#C[C@@]1(CO)C=C[C@H](n2cnc3cncnc32)O1` [compound 38, ((2R,5R)-2-ethynyl-5-(9H-purin-9-yl)-2,5-dihydrofuran-2-yl)methanol], over 50 µM. The compound `C#C[C@]1(CO)OC(n2cc(F)c(=O)[nH]c2=O)C[C@@H]1O` (stereo partly drawn) [compound 45, 1-((4S,5R)-5-ethynyl-4-hydroxy-5-(hydroxymethyl)tetrahydrofuran-2-yl)-5-fluoropyrimidine-2,4(1H,3H)-dione] yielded an IC50 of 3.81 µM.

Regarding `CC[C@]1(CO)O[C@@H](n2cc(Br)c(N)nc2=O)C[C@@H]1O` [compound 105, 4-amino-5-bromo-1-((2R,4S,5R)-5-ethyl-4-hydroxy-5-(hydroxymethyl)tetrahydrofuran-2-yl)pyrimidin-2(1H)-one], the IC50 came to 0.15 µM. Same read-out and setting: with `Cc1cn([C@@H]2C[C@@H](O)[C@H](CO)O2)c(=O)[nH]c1=O` [compound 95, 1-((2S,4R,5S)-4-hydroxy-5-(hydroxymethyl)tetrahydrofuran-2-yl)-5-methylpyrimidine-2,4(1H,3H)-dione] the figure was over 50 µM. Same read-out and setting: under `C#C[C@]1(CO)O[C@H](n2nc(C)c3c(N)nc(F)nc32)C[C@@H]1O` [Cpd. No. 3, (2R,3S,5S)-5-(4-amino-6-fluoro-3-methyl-1H-pyrazolo[3,4-d]pyrimidin-1-yl)-2-ethynyl-2-(hydroxymethyl)tetrahydrofuran-3-ol] stands 0.041 µM.

In turn, `C#C[C@@]1(CO)C=C[C@H](n2cc(C3CC3)c(=O)[nH]c2=O)O1` [compound 27, 5-cyclopropyl-1-((2R,5R)-5-ethynyl-5-(hydroxymethyl)-2,5-dihydrofuran-2-yl)pyrimidine-2,4(1H,3H)-dione] returned an IC50 of over 50 µM. Still for that read-out and setting: under `CC#C[C@@]1(CO)O[C@@H](n2cc(C)c(=O)[nH]c2=O)C[C@H]1O` [compound 24, 1-((2R,4R,5S)-4-hydroxy-5-(hydroxymethyl)-5-(prop-1-yn-1-yl)tetrahydrofuran-2-yl)-5-methylpyrimidine-2,4(1H,3H)-dione] stands over 50 µM; under `C#C[C@@]1(CO)C=C[C@H](n2cc(OC)c(=O)[nH]c2=O)O1` [compound 36, 1-((2R,5R)-5-ethynyl-5-(hydroxymethyl)-2,5-dihydrofuran-2-yl)-5-methoxypyrimidine-2,4(1H,3H)-dione], over 12.5 µM; under `C#C[C@@]1(CO)C=C[C@H](n2cc(OC(F)F)c(=O)[nH]c2=O)O1` [compound 57, 5-(difluoromethoxy)-1-((2R,5R)-5-ethynyl-5-(hydroxymethyl)-2,5-dihydrofuran-2-yl)pyrimidine-2,4(1H,3H)-dione], over 50 µM. `C[C@]1(CO)O[C@@H](n2cc(F)c(=O)[nH]c2=O)[C@H](O)[C@@H]1O` [compound 189, 1-((2R,3R,4S,5R)-3,4-dihydroxy-5-(hydroxymethyl)-5-methyltetrahydrofuran-2-yl)-5-fluoropyrimidine-2,4(1H,3H)-dione] yielded an IC50 of 9.17 µM. Still for that read-out and setting: under `[2H]C([2H])([2H])c1cn([C@H]2C=C[C@@](C#C)(CO)O2)c(=O)[nH]c1=O` [compound 37, 1-((2R,5R)-5-ethynyl-5-(hydroxymethyl)-2,5-dihydrofuran-2-yl)-5-(methyl-d3)pyrimidine-2,4(1H,3H)-dione] stands 0.067 µM. The same measure, in the same setting: under `C#C[C@]1(CO)O[C@H](n2cnc3c(NC4CC4)nc(N)nc32)C[C@@H]1O` [compound 83, (2R,3S,5S)-5-(2-amino-6-(cyclopropylamino)-9H-purin-9-yl)-2-ethynyl-2-(hydroxymethyl)tetrahydrofuran-3-ol] stands 0.429 µM; under `C#C[C@]1(CO)OC(n2cc(OC)c(=O)[nH]c2=O)C[C@@H]1O` (stereo partly drawn) [compound 59, 1-((4S,5R)-5-ethynyl-4-hydroxy-5-(hydroxymethyl)tetrahydrofuran-2-yl)-5-methoxypyrimidine-2,4(1H,3H)-dione], 20.9 µM; under `CC[C@]1(CO)O[C@@H](n2cc(C#N)c(=O)[nH]c2=O)C[C@@H]1O` [Cpd. No. 98, 1-((2R,4S,5R)-5-ethyl-4-hydroxy-5-(hydroxymethyl)tetrahydrofuran-2-yl)-4-hydroxy-2-oxo-1,2-dihydropyrimidine-5-carbonitrile], over 25 µM. On the same count and under the same terms, with `C=C[C@]1(CO)O[C@@H](n2cc(C)c(=O)[nH]c2=O)C[C@H]1O` [compound 25, 1-((2R,4R,5R)-4-hydroxy-5-(hydroxymethyl)-5-vinyltetrahydrofuran-2-yl)-5-methylpyrimidine-2,4(1H,3H)-dione] the figure was over 50 µM; with `C#C[C@]1(CO)OC(n2cc(C)c(=O)[nH]c2=O)C[C@@H]1O` (stereo partly drawn) [compound 43, 1-((4S,5R)-5-ethynyl-4-hydroxy-5-(hydroxymethyl)tetrahydrofuran-2-yl)-5-methylpyrimidine-2,4(1H,3H)-dione], 0.876 µM. Compound `C#C[C@]1(CO)OC(n2cnc3c(O)ncnc32)C[C@@H]1O` (stereo partly drawn) [compound 81, 9-((4S,5R)-5-ethynyl-4-hydroxy-5-(hydroxymethyl)tetrahydrofuran-2-yl)-9H-purin-6-ol] came in with an IC50 of 4.4 µM. This IC50 lies about 5-fold higher than the previous one. On the same count and under the same terms, with `Cc1cn([C@H]2C[C@@H](O)[C@@](C)(CO)O2)c(=O)[nH]c1=O` [compound 23, 1-((2R,4R,5R)-4-hydroxy-5-(hydroxymethyl)-5-methyltetrahydrofuran-2-yl)-5-methylpyrimidine-2,4(1H,3H)-dione] the figure was over 50 µM; with `C#C[C@]1(CO)O[C@H](n2cc(C)c(N)nc2=O)C[C@@H]1O` [compound 56, 4-amino-1-((2S,4S,5R)-5-ethynyl-4-hydroxy-5-(hydroxymethyl)tetrahydrofuran-2-yl)-5-methylpyrimidin-2(1H)-one], over 50 µM. On the same count and under the same terms, under `C=C[C@]1(CO)O[C@@H](n2cnc3c(OC)nc(N)nc32)C[C@@H]1O` [Cpd. No. 102, (2R,3S,5R)-5-(2-amino-6-methoxy-9H-purin-9-yl)-2-(hydroxymethyl)-2-vinyltetrahydrofuran-3-ol] stands 1.78 µM. The same measure, in the same setting: under `C#C[C@@]1(CO)C=C[C@H](n2cc(C)c(N)nc2=O)O1` [compound 42, 4-amino-1-((2R,5R)-5-ethynyl-5-(hydroxymethyl)-2,5-dihydrofuran-2-yl)-5-methylpyrimidin-2(1H)-one] stands over 50 µM. As for `CC[C@]1(CO)O[C@H](n2ccc(=O)[nH]c2=O)C[C@@H]1O` [Cpd. No. 20, 1-((2S,4S,5R)-5-ethyl-4-hydroxy-5-(hydroxymethyl)tetrahydrofuran-2-yl)pyrimidine-2,4(1H,3H)-dione], the IC50 is 7.21 µM.

Staying with this experiment, now noted: Human LINE-1 activity inhibition; HeLa cells, reporter plasmid pYX017, Firefly/Renilla, 72 h incubation.
`CC[C@]1(CO)O[C@@H](n2cnc3c(N)nc(F)nc32)[C@@H](F)[C@@H]1O` [compound 191, (2R,3R,4S,5R)-5-(6-amino-2-fluoro-9H-purin-9-yl)-2-ethyl-4-fluoro-2-(hydroxymethyl)tetrahydrofuran-3-ol] yielded an IC50 of 56 µM. On the same count and under the same terms, under `C#C[C@]1(CO)OC(n2cnc3c(O)ncnc32)C[C@@H]1O` (stereo partly drawn) [compound 81, 9-((4S,5R)-5-ethynyl-4-hydroxy-5-(hydroxymethyl)tetrahydrofuran-2-yl)-9H-purin-6-ol] stands 7.45 µM.
